Results from publication PMC6271266, “Synthesis and Biological Evaluation of Liguzinediol Mono- and Dual Ester Prodrugs as Promising Inotropic Agents” (Molecules, 2014).
Converted amounts (≈) assume the structure as drawn.

Experiments:
[1] = Hydrolysis (chemical stability) in phosphate buffer pH 7.4; type: physicochemical; conditions: buffer solution pH 7.4, 37 °C, n = 3, mean ± SD
Method: The chemical stabilities of the target products were analyzed by high-performance liquid chromatography (HPLC) and were calculated as the amount unchanged within 24 h in buffer solutions at pH 7.4.
Methanolic stock solutions of each compound were added to 10 mL of 50 mM phosphate buffer solution (pH 7.4). The resulting solution was placed in a constant shaker bath set at 37 °C and after 24 h, a 10 μL aliquot of reaction solution was taken and analyzed by HPLC [35]. All experiments were performed in triplicate.

[2] = Metabolism in human liver microsomes; type: in vitro ADME; conditions: for half-life: human, human liver microsomes, pH 7.4, read-out: t1/2 (Human Liver Microsomes) (converted); for bioconversion to LZDO or monoester in human liver microsomes: result in words
Method: (§1) For a rationally designed prodrug intended to prolong the half-life of the active moiety, the metabolic lability should be sufficient and continuous. Preliminary metabolic stability was assessed in human plasma and human liver microsomes The profile of disappearance of each prodrug followed a pseudo-first-order trend, and half-lives were calculated from the linear slopes of logarithmic plots of remaining prodrug over time.
To the human liver microsomes which were dissolved in 50 mM phosphate buffer solution (pH 7.4) to a concentration of 1 mg/mL, a prodrug (100 μL, initial concentrations were 4.20–9.85 mM) in methanol and NADPH (100 μL, 1 mM) also in 50 mM phosphate buffer solution (pH 7.4) were successively added to initiate the incubation. The solution was then incubated at 37 °C and the subsequent procedures of sample preparations were similar to those in Section 3.5. All experiments were performed at least in triplicate.
(§2) Separation and quantitation of the releasing LZDO and the prodrugs were carried out using a HPLC procedure. The HPLC system was equipped with a Waters 2695 gradient pump, a Waters 2487 UV detector at 278 nm, and an Empower 2 data station. The analytical column for in vitro samples was a Boston Green ODS-AQ column (4.6 mm × 50 mm, 5 μm) and the injection volume was 10 μL. Gradient elution methods were performed with a flow rate at 1.0 mL/min on Boston Green ODS-AQ column maintained at 30 °C. The percentage of mobile phase consisting of methanol and water was varied to elute analytes (see Supplementary Material for details of the HPLC elution). The methods provided rapid analysis for quantifying LZDO, prodrug and internal standard simultaneously. When qualifying the releasing amount of LZDO, separate standard curves under specific analytic condition were prepared by spiking a known amount of LZDO and internal standard in blank matrix. Disappearance of each prodrug from in vitro samples was analyzed by taking the ratio of peak areas detected at sampling time to that at initial time. As for in vivo pharmacokinetic analysis, determinations only referred to LZDO and an Ultimate XB-C18 column (3.0 mm × 50 mm, 3 μm) with an injection volume of 2 μL was used. The flow rate on Ultimate XB-C18 column was 0.4 mL/min with a column temperature of 30 °C. The mobile phase consisted of methanol (A) and water (B). The initial mobile phase composition was 4% A/96% B and maintained for 8 min. After that the mobile phase composition was changed to 80% A/20% B over 4 min and held at that ratio for an additional 4 min. The mobile phase was returned to initial composition over 1 min and re-equilibrated for 3 min. For in vivo analytical samples, a separate standard curve was prepared using blank rat plasma and ranged from 0.39 to 50 μg/mL.

[3] = Hydrolysis in 80% human plasma; type: in vitro ADME; conditions: for half-life: human, 80% human plasma, pH 7.4, read-out: t1/2 (80% Human Plasma) (converted); for bioconversion to LZDO or monoester in human plasma: result in words
Method: as §1
A prodrug (100 μL, initial concentrations were 4.20–9.85 mM) in methanol was added to human plasma (1000 μL) diluted to 80% with 50 mM phosphate buffer solution (pH 7.4) and was placed in a constant shaker bath set. The resulting solution was subsequently incubated at 37 °C and at appropriate time intervals methanol (1 mL) containing caffeine as internal standard was added in order to deproteinize the serum. The sample was vortexed for 3 min, and then centrifuged for 5 min at 5000 g. 900 μL of clear supernatant was withdrawn and evaporated to remove the solvent. Before analysis by RP-HPLC, the samples were dissolved in methanol (200 μL), vortexed again for 5 min, and then centrifuged for 5 min at 12,000 g. All experiments were performed at least in triplicate.
as §2

[4] = Partition coefficient, n-octanol / 50 mM phosphate buffer pH 7.4; type: physicochemical; conditions: 1-octanol/phosphate buffer (7.4) at 25 °C, n = 3, mean ± SD; for logP: n-octanol/50 mM phosphate buffer, pH 7.4
Method: Partitioning studies were performed with n-octanol and 50 mM phosphate buffer solution (pH 7.4) following standard procedures described in the literature. All experiments were conducted in triplicate, and the determination of LZDO was also carried out as a reference. Meanwhile, ChemBioDraw Ultra 12.0 was used to determine the calculated log p values as reference to the observed values.

[5] = Capacity factor (k') by HPLC (lipophilic index); type: physicochemical; conditions: n = 3, mean ± SD
Method: According to the method described in the literature, the capacity factor (k') of the prodrugs was determined using high-performance liquid chromatography (HPLC). Retention times of each prodrug and LZDO were measured and k' values were calculated from the following equation: k' = (t' − t0)/t0(1) where t0 is the retention time of the uracil and t' is the retention time of each compound. All experiments were conducted in triplicate.

[6] = Aqueous solubility in 50 mM phosphate buffer pH 7.4; type: physicochemical; conditions: for solubility at 24 h: thermodynamic from solid
Method: An excess of each prodrug was added to 5 mL of 50 mM phosphate buffer solution (pH 7.4), and shaken at 25 °C in a water bath to establish equilibration for 24 h. After the equilibration, the samples were filtered through a membrane filter (0.45 μm) and analyzed by HPLC. All experiments were conducted in triplicate.

[7] = prodrug disappearance, from pseudo-first-order rate constant
[8] = aqueous buffer, 50 mM phosphate buffer pH 7.4, 25 °C, 24 h, n = 3, mean ± SD

| % Unchanged at 24 h (pH 7.4) [1] | % Max of LZDO Released (Human Liver Microsomes) ([2]; maximum percentage of liguzinediol released at 6 h incubation, 37 °C, NADPH) [%] | t1/2 (Human Liver Microsomes) [2, 7] [h] | % Max of LZDO Released (80% Human Plasma) ([3]; maximum percentage of liguzinediol released at 6 h incubation, 37 °C) [%] | t1/2 (80% Human Plasma) [3, 7] [h] | Log P [4] | Capacity Factor [5] | half-life [2, 7] [h] | melting point [°C] | solubility at 24 h [6, 8] [µg/mL] | half-life [3, 7] [h] | logP [4] | bioconversion to LZDO or monoester in human liver microsomes [2] | bioconversion to LZDO or monoester in human plasma [3] | Solubility ([6]; 50 mM phosphate buffer pH 7.4, 25 °C, 24 h, n = 3, mean ± SD) [µg/mL] | solubility at 24 h ([6]; phosphate buffer, 25 °C, pH 7.4, aqueous buffer, as restated in conclusions) [µg/mL] | Compound |
| --- | --- | --- | --- | --- | --- | --- | --- | --- | --- | --- | --- | --- | --- | --- | --- | --- |
| 98.2 ± 0.6% | 15.9 ± 1.2 | 9.5 ± 0.9 | 15.6 ± 1.6 | 9.6 ± 1.1 | 3.38 ± 0.20 | 1.055 ± 0.061 |  |  |  |  |  |  |  |  |  | 3,6-Dimethyl-5-hydroxy-2-octadecanoyloxymethylpyrazine [Compound M18] |
| 99.7 ± 0.2% |  |  |  |  |  | 0.514 ± 0.012 | 2.2 ± 0.1 | 40 to 41 | 2.23 ± 0.11 (≈ 0.00636 mM) | 2.6 ± 0.5 | 3.12 ± 0.15 |  |  |  |  | CCCCCCCCCCCC(=O)OCc1nc(C)c(CO)nc1C [Compound M12, 3,6-Dimethyl-2-dodecanoyloxymethyl-5-hydroxymethylpyrazine] |
| stable ^c |  |  |  |  | thoroughly partitioned into n-octanol | 3.911 ± 0.042 |  | 74 to 75 |  |  |  | no bioconversion | no bioconversion |  |  | CCCCCCCCCCCCCCCC(=O)OCc1nc(C)c(COC(=O)CCCCCCCCCCCCCCC)nc1C [Compound D16, 2,5-Dihexadecanoyloxymethyl-3,6-dimethylpyrazine] |
| 98.9 ± 0.3% |  |  |  |  |  | 0.400 ± 0.015 | 2.1 ± 0.6 | 31 to 32 | 8.89 ± 0.21 (≈ 0.0276 mM) | 2.3 ± 0.2 | 2.48 ± 0.04 |  |  |  |  | CCCCCCCCCC(=O)OCc1nc(C)c(CO)nc1C [Compound M10, 2-Decanoyloxymethyl-3,6-dimethyl-5-hydroxymethylpyrazine] |
| stable ^c |  |  |  |  | thoroughly partitioned into n-octanol | 6.134 ± 0.084 |  | 75 to 76 |  |  |  | no bioconversion | no bioconversion |  |  | CCCCCCCCCCCCCCCCCC(=O)OCc1nc(C)c(COC(=O)CCCCCCCCCCCCCCCCC)nc1C [Compound D18, 3,6-Dimethyl-2,5-dioctadecanoyloxymethylpyrazine] |
|  |  |  |  |  |  | 0.100 ± 0.004 |  |  | 224000 (≈ 1330 mM) |  | -1.12 ± 0.11 |  |  |  |  | Cc1nc(CO)c(C)nc1CO [Liguzinediol, 2,5-Dihydroxymethyl-3,6-dimethylpyrazine] |
| 98.7 ± 0.4% |  |  |  |  |  | 1.068 ± 0.057 | 4.1 ± 0.5 | 46 to 47 |  | 4.2 ± 0.4 | 2.87 ± 0.16 |  |  |  |  | CCCCCCCCCC(=O)OCc1nc(C)c(COC(=O)CCCCCCCCC)nc1C [Compound D10, 2,5-Didecanoyloxymethyl-3,6-dimethylpyrazine] |
| 99.4 ± 0.4% |  |  |  |  |  | 0.834 ± 0.012 | 3.3 ± 0.7 | 60 to 62 |  | 3.3 ± 0.6 | 3.25 ± 0.13 |  |  |  |  | CCCCCCCCCCCCCCCC(=O)OCc1nc(C)c(CO)nc1C [Compound M16, 3,6-Dimethyl-2-hexadecanoyloxymethyl-5-hydroxymethylpyrazine] |
| 96.1 ± 0.2% |  |  |  |  |  | 0.364 ± 0.039 | 3.2 ± 0.3 | 80 to 82 | 29.9 ± 1.36 (≈ 0.0889 mM) | 3.4 ± 0.4 | 2.5 ± 0.18 |  |  |  |  | Cc1nc(COC(=O)C(C)(C)C)c(C)nc1COC(=O)C(C)(C)C [Compound D5, 3,6-Dimethyl-2,5-dipivaloyloxymethylpyrazine] |
| 99.8 ± 0.5% |  |  |  |  |  | 1.640 ± 0.032 | 7.9 ± 0.9 | 55 to 56 |  | 7.9 ± 1 | 3.77 ± 0.21 |  |  |  |  | CCCCCCCCCCCC(=O)OCc1nc(C)c(COC(=O)CCCCCCCCCCC)nc1C [Compound D12, 2,5-Didodecanoyloxymethyl-3,6-dimethylpyrazine] |
| 98.9 ± 0.3% |  |  |  |  |  | 0.210 ± 0.020 | 5.1 ± 0.2 | 66 to 67 |  | 2.6 ± 0.1 | 1.33 ± 0.1 |  |  | 8000 ± 350 (≈ 31.7 mM) | 8000 (≈ 31.7 mM) | Cc1nc(COC(=O)C(C)(C)C)c(C)nc1CO [Compound M5, 3,6-Dimethyl-5-hydroxymethyl-2-pivaloyloxymethylpyrazine] |
